In article PMC11355796, “Blue and Yellow Laccases from Alternaria sp. Strain HU: Characterization and Immobilization on Magnetic Nanoparticles” (Journal of Fungi, 2024):
Where a name gives a salt, the structure may show the parent alone.

How the values were obtained:
LacHU1 = test system: T1, LacHU1; test: initial-rate oxidation assay, Michaelis-Menten fit; type: biochemical, Alternaria sp. HU; settings: free enzyme; apparent constant; read-out: Kinetic Parameters / KM, μM / LacHU1
T1 construct: native secreted enzyme purified from culture liquid; signal peptide of 18 residues
From the text: initial-rate oxidation assay, Michaelis-Menten fit on LacHU1

LacHU2 = test system: T2, LacHU2; test: initial-rate oxidation assay, Michaelis-Menten fit; type: biochemical, Alternaria sp. HU; settings: free enzyme; apparent constant; read-out: Kinetic Parameters / KM, μM / LacHU2
T2 construct: native secreted enzyme purified from culture liquid; signal peptide of 18 residues
From the text: initial-rate oxidation assay, Michaelis-Menten fit on LacHU2

| Km (LacHU1) [µM] | SMILES | Km (LacHU2) [µM] |
| --- | --- | --- |
| 10 ± 2 | COc1cccc(OC)c1O [2,6-DMP] | 4300 |
| 40 ± 10 | OCCN1c2ccccc2Oc2ccccc21 [2-(10H-phenoxazin-10-yl)ethanol] | 200 ± 50 |
| 50 ± 3 | O=C(O)/C=C/c1ccc(O)c(O)c1 [Caffeic acid] | 400 ± 30 |
| – | Oc1ccccc1O [Catechol] | 20000 |
| – | O=C(/C=C/c1ccc(O)c(O)c1)O[C@@H]1C[C@](O)(C(=O)O)C[C@@H](O)[C@H]1O [Chlorogenic acid] | 90 ± 40 |
| 15 ± 1 | O=c1c(O)c(-c2ccc(O)c(O)c2)oc2cc(O)ccc12 [Fisetin] | – |
| – | Oc1ccc(O)cc1 [Hydroquinone] | 13000 |
| 2 ± 0.3 | O=c1c(O)c(-c2cc(O)c(O)c(O)c2)oc2cc(O)cc(O)c12 [Myricetin] | – |
| – | CN(C)CCCN1c2ccccc2Sc2ccccc21 [Promazine hydrochloride] | 2600 |
| 1 ± 0.1 | COc1cc(C=NN=Cc2cc(OC)c(O)c(OC)c2)cc(OC)c1O [Syringaldazine] | – |
| 40 ± 0.5 | COc1cc(C(=O)O)cc(OC)c1O [Syringic acid] | – |
| – | Nc1ccc(N)cc1 [p-Phenylenediamine] | 3600 |

| SMILES | Km (LacHU1) [µM] | Km (LacHU2) [µM] |
| --- | --- | --- |
| CCn1c(=NN=c2sc3cc(S(=O)(=O)O)ccc3n2CC)sc2cc(S(=O)(=O)O)ccc21 [ABTS, 2,2’-azino-bis(3-ethylbenzothiazoline-6-sulfonic acid) diammonium salt] | 60 ± 10 | 5600 |
| COc1cc(/C=C/C(=O)O)ccc1O [Ferulic acid] | 50 ± 4 | 230 ± 30 |
| O=c1c(O)c(-c2ccc(O)c(O)c2)oc2cc(O)cc(O)c12 [Quercetin] | 2 ± 0.4 | – |
